Patent US20070010537A1, “Fused pyramidine derivative and use thereof” (priority 2004, published 2007)
Counter-ions that a name gives are not always drawn.

target: T1, human GnRH receptor (Homo sapiens, UniProt P30968); assay: 125I-leuprorelin binding assay, human GnRH receptor CHO cell membrane fraction; details: 10 nM of the testing compound, room temperature for 1 hour, read-out: Binding inhibitory ratio (%)
T1 construct: expressed in transfected cells; host or cells: CHO (Chinese Hamster Ovary) cells
T1 sequence (P30968 1-328): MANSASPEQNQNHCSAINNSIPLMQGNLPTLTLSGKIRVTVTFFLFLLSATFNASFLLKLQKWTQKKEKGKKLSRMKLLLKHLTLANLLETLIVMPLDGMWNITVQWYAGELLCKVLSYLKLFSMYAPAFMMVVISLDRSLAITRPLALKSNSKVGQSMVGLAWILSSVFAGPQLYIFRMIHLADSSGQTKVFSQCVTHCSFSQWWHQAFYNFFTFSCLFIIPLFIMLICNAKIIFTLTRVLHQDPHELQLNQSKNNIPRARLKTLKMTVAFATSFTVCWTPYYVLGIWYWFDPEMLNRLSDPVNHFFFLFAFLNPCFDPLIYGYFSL
Procedure: (1) Production of ^125I-Leuprorelin
10 μL of a 3×10^−4 M aqueous solution of leuprorelin and 10 μL of 0.01 mg/mL lactoperoxidase were placed in a tube, and 10 μL (37 MBq) of a Na^125I solution was added thereto. After stirring, 10 μL of 0.001% H2O2 was added to allow the mixture to undergo a reaction at room temperature for 20 minutes. 700 μL of a 0.05% TFA solution was added to stop the reaction, and purification by reversed phase HPLC was carried out. The conditions for HPLC are described below. ^125I-leuprorelin was eluted at a retention time of 26 to 27 minutes.
(2) Production of CHO (Chinese Hamster Ovary) Cell Membrane Fraction Containing Human GnRH Receptor
Human GnRH receptor-expressing CHO cells were cultured until the cells were reached a 90% confluent state in a T-150 flask. The cells were separated using 0.02% EDTA-PBS and were centrifuged at 500×g for 5 minutes. A homogenate buffer for cells (10 mM NaHCO3, 1 mM EDTA, 1 mM PMSF, 0.5 μg/mL Pepstatin, 2 μg/mL Leupeptin, pH 7.4) was added to the cell pellet, and the mixture was homogenized with a Polytron homogenizer. After centrifugation of the homogenate at 4° C. and at 1000×g for 10 minutes, the supernatant was placed in an ultracentrifuge tube and was centrifuged at 4° C. and at 49,300×g for 1 hour to obtain a precipitate of a membrane fraction. This precipitate was suspended in an assay buffer (50 mM Tris-HCl, 150 mM NaCl, 5 mM EDTA, pH 7.4) and then dispensed and stored at −80° C., so that the suspension can be thawed every time it is taken for use.
(3) Measurement of the Binding Inhibitory Rate of 125I-Leuprorelin
A ^125I-leuprorelin binding assay was carried out using 200 μL of an assay buffer containing 10 μg of human GnRH receptor membrane fraction, […] of ^125I-leuprorelin and 10 nM of the testing compound.
The non-specific binding radioactivity was measured in the presence of 1 μM of non-labeled leuprorelin. After leaving the mixture to stand at room temperature for 1 hour, 125I-leuprorelin was captured on a GF/C filter (PerkinElmer, Inc.), and the filter was washed with ice-cold 50 mM Tris-HCl (pH 7.4) using a cell harvester. After drying the filter, a liquid scintillation cocktail for microplate was added, and the membrane-bound radioactivity was measured using a TopCount.
The value of (TB-SB)/(TB-NSB)×100 (SB: radioactivity upon addition of the compound, TB: maximum binding radioactivity, NSB: non-specific binding radioactivity) was calculated to determine the binding inhibitory rate in the presence of 10 nM of each testing material.

Compound | inhibition at 0.01 µM [%]
O=c1[nH]c2ccccc2c(=O)n1-c1cc(S(=O)(=O)N2CCCc3ccccc32)ccc1Cl [Example 6(4), 3-(2-Chloro-5-(3,4-dihydroquinolin-1(2H)-ylsulfonyl)phenyl)quinazoline-2,4(1H,3H)-dione] | 88.5
O=c1[nH]c2ccccc2c(=O)n1-c1cc(S(=O)(=O)N2CCCCc3ccccc32)ccc1Cl [Example 7(5), 3-(2-Chloro-5-(2,3,4,5-tetrahydro-1H-1-benzazepin-1-ylsulfonyl)phenyl)-2,4(1H,3H)-quinazolinedione] | 95.6
O=c1[nH]c2ccccc2c(=O)n1-c1cc(S(=O)(=O)N2CCCOc3ccccc32)ccc1Cl [Example 7(8), 3-(2-Chloro-5-(3,4-dihydro-1,5-benzoxazepin-5(2H)-ylsulfonyl)phenyl)-2,4(1H,3H)-quinazolinedione] | 87.6
O=c1[nH]c2ccccc2c(=O)n1-c1cc(S(=O)(=O)N2CCCc3ccccc32)ccc1F [Example 7(22), 3-[5-(3,4-Dihydroquinolin-1(2H)-ylsulfonyl)-2-fluorophenyl]quinazoline-2,4(1H,3H)-dione] | 75.5
O=c1[nH]c2ccccc2c(=O)n1-c1cc(S(=O)(=O)N2CCCCc3sccc32)ccc1Cl [Example 7(70), 3-[2-Chloro-5-(5,6,7,8-tetrahydro-4H-thieno[3,2-b]azepin-4-ylsulfonyl)phenyl]quinazoline-2,4(1H,3H)-dione] | 94.5
N=c1c2ccccc2[nH]c(=O)n1-c1cc(S(=O)(=O)N2CCCc3ccccc32)ccc1Cl [Example 8(1), 3-(2-Chloro-5-(3,4-dihydro-1(2H)-quinolinylsulfonyl)phenyl)-4-imino-3,4-dihydro-2(1H)-quinazoline trifluoroacetate] | 91.7
CN(c1ccccc1)S(=O)(=O)c1ccc(Cl)c(-n2c(=O)[nH]c3ccccc3c2=N)c1 [Example 8, 4-Chloro-3-(4-imino-2-oxo-1,4-dihydro-3(2H)-quinazolinyl)-N-methyl-N-phenylbenzenesulfonamide trifluoroacetate] | 84.7
CN(C(=O)c1ccc(Cl)c(-n2c(=O)[nH]c3ccccc3c2=O)c1)c1ccccc1 [Example 14, 4-Chloro-3-(2,4-dioxo-1,4-dihydroquinazolin-3(2H)-yl)-N-methyl-N-phenylbenzamide] | 88.9
CN(C(=O)c1cc(-n2c(=O)[nH]c3cccc(CO)c3c2=O)c(Cl)s1)c1ccccc1 [Example 21(12), 5-Chloro-4-[5-(hydroxymethyl)-2,4-dioxo-1,4-dihydroquinazolin-3(2H)-yl]-N-methyl-N-phenylthiophene-2-carboxamide] | 84.2
COC(=O)c1cccc2[nH]c(=O)n(-c3cc(S(=O)(=O)N4CCCc5ccccc54)ccc3Cl)c(=O)c12 [Example 30, Methyl 3-[2-chloro-5-(3,4-dihydroquinolin-1(2H)-ylsulfonyl)phenyl]-2,4-dioxo-1,2,3,4-tetrahydroquinazoline-5-carboxylate] | 98
O=C(O)c1cccc2[nH]c(=O)n(-c3cc(S(=O)(=O)N4CCCc5ccccc54)ccc3Cl)c(=O)c12 [Example 31, 3-[2-Chloro-5-(3,4-dihydroquinolin-1(2H)-ylsulfonyl)phenyl]-2,4-dioxo-1,2,3,4-tetrahydroquinazoline-5-carboxylic acid] | 98.2
O=c1[nH]c2cccc(CO)c2c(=O)n1-c1cc(S(=O)(=O)N2CCCc3ccccc32)ccc1Cl [Example 36, 3-[2-Chloro-5-(3,4-dihydroquinolin-1(2H)-ylsulfonyl)phenyl]-5-(hydroxymethyl)quinazoline-2,4(1H,3H)-dione] | 96.7
N#Cc1sc(S(=O)(=O)N2CCCCc3ccccc32)cc1-n1c(=O)[nH]c2ccccc2c1=O [Example 42, 3-(2,4-Dioxo-1,4-dihydroquinazolin-3(2H)-yl)-5-(2,3,4,5-tetrahydro-1H-1-benzazepin-1-ylsulfonyl)thiophene-2-carbonitrile] | 77.4
CN(C(=O)c1ccc(Cl)c(-n2c(=O)[nH]c3cccc(CO)c3c2=O)c1)c1ccccn1 [Example 46(1), 4-Chloro-3-[5-(hydroxymethyl)-2,4-dioxo-1,4-dihydroquinazolin-3(2H)-yl]-N-methyl-N-pyridin-2-ylbenzamide] | 98.2
O=c1[nH]c2cccc(CO)c2c(=O)n1-c1cc(S(=O)(=O)N2CCCCc3ccccc32)sc1Cl [Example 47, 3-[2-Chloro-5-(2,3,4,5-tetrahydro-1H-1-benzazepin-1-ylsulfonyl)-3-thienyl]-5-(hydroxymethyl)quinazoline-2,4(1H,3H)-dione] | 94.8
CN(C(=O)c1cc(-n2c(=O)[nH]c3cccc(CO)c3c2=O)c(Cl)s1)c1ccccc1Cl [Example 73(1), 5-Chloro-N-(2-chlorophenyl)-4-[5-(hydroxymethyl)-2,4-dioxo-1,4-dihydroquinazolin-3(2H)-yl]-N-methylthiophene-2-carboxamide] | 91.5
CN(C(=O)c1cc(-n2c(=O)[nH]c3cccc(CO)c3c2=O)c(Cl)s1)c1cccc(Cl)c1 [Example 73(2), 5-Chloro-N-(3-chlorophenyl)-4-[5-(hydroxymethyl)-2,4-dioxo-1,4-dihydroquinazolin-3(2H)-yl]-N-methylthiophene-2-carboxamide] | 93.8
Cc1ccccc1N(C)C(=O)c1cc(-n2c(=O)[nH]c3cccc(CO)c3c2=O)c(Cl)s1 [Example 73(4), 5-Chloro-4-[5-(hydroxymethyl)-2,4-dioxo-1,4-dihydroquinazolin-3(2H)-yl]-N-methyl-N-(2-methylphenyl)thiophene-2-carboxamide] | 82.2
Cc1cccc(N(C)C(=O)c2cc(-n3c(=O)[nH]c4cccc(CO)c4c3=O)c(Cl)s2)c1 [Example 73(5), 5-Chloro-4-[5-(hydroxymethyl)-2,4-dioxo-1,4-dihydroquinazolin-3(2H)-yl]-N-methyl-N-(3-methylphenyl)thiophene-2-carboxamide] | 95.6
CN(C(=O)c1cc(-n2c(=O)[nH]c3cccc(CO)c3c2=O)c(Cl)s1)C1CCCCC1 [Example 73, 5-Chloro-N-cyclohexyl-4-[5-(hydroxymethyl)-2,4-dioxo-1,4-dihydroquinazolin-3(2H)-yl]-N-methylthiophene-2-carboxamide] | 79
NC(=O)c1cccc2[nH]c(=O)n(-c3cc(S(=O)(=O)N4CCCc5ccccc54)ccc3Cl)c(=O)c12 [Example 85, 3-[2-Chloro-5-(3,4-dihydroquinolin-1(2H)-ylsulfonyl)phenyl]-2,4-dioxo-1,2,3,4-tetrahydroquinazoline-5-carboxamide] | 94
CC(C)CN(C)C(=O)c1cc(-n2c(=O)[nH]c3cccc(CO)c3c2=O)c(Cl)s1 [Example 89, 5-Chloro-4-[5-(hydroxymethyl)-2,4-dioxo-1,4-dihydroquinazolin-3(2H)-yl]-N-isobutyl-N-methylthiophene-2-carboxamide] | 76.2
CC(C)(O)c1cccc2[nH]c(=O)n(-c3cc(S(=O)(=O)N4CCCc5ccccc54)ccc3Cl)c(=O)c12 [Example 100(1), 3-[2-Chloro-5-(3,4-dihydroquinolin-1(2H)-ylsulfonyl)phenyl]-5-(1-hydroxy-1-methylethyl)quinazoline-2,4(1H,3H)-dione] | 99.9
